These results are taken from paper PMC6410164, “Isolation and Structure-Activity Relationship of Subergorgic Acid and Synthesis of Its Derivatives as Antifouling Agent” (Marine Drugs, 2019).

In one series the test system is barnacle larvae. Particulars: cited from earlier work.
Series [1] in a line: Toxicity toward larvae in the settlement assay (LC50). The note with it: Balanus amphitrite (barnacle), cyprid larvae, in vivo, other: immersion of larvae in test solution, B. amphitrite larvae, highest concentration tested 25 μg/mL. The protocol: The antifouling activity was examined using cyprids of the barnacle B. amphitrite Darwin according to the method reported previously. Briefly, adults of B. amphitrite, collected from the intertidal zone in Hong Kong, were exposed to air for more than 6 h, and were then placed in a container filled with 0.22 µm filtered seawater (FSW) to release nauplii. The collected nauplii were raised to cyprid stage using the method described by Thiyagarajan et al.. Fresh cyprids were used in the test. Larval settlement assays were examined using 24-well polystyrene plates. […] About 15−20 competent larvae were added to each well containing 1 mL of test solution in triplicate, and wells containing only FSW, DMSO, and larvae served as a control. The plates were incubated at 25 °C for 48 h. The effects of the test samples against biofouling were determined by examining the plates under a microscope to count settled, unsettled, and swimming larvae, and where appropriate, potential toxic effects were recorded. The number of settled larvae was expressed as a percentage of the total number of larvae per well. Three replicates of each treatment were performed. A concentration-response curve was then made and a trend line was constructed for each compound.

The subject of series [2] is B. amphitrite. The experiment in a line: Larval settlement (antifouling) assay with cyprids of the barnacle B. amphitrite. The format is in vivo, Balanus amphitrite. Particulars: Amphibalanus amphitrite, 48 h, read-out: EC50 (μg/mL), inhibition of settlement of B. amphitrite. The protocol:
The antifouling activity was examined using cyprids of the barnacle B. amphitrite Darwin according to the method reported previously. Briefly, adults of B. amphitrite, collected from the intertidal zone in Hong Kong, were exposed to air for more than 6 h, and were then placed in a container filled with 0.22 µm filtered seawater (FSW) to release nauplii. The collected nauplii were raised to cyprid stage using the method described by Thiyagarajan et al.. Fresh cyprids were used in the test. Larval settlement assays were examined using 24-well polystyrene plates. The tested samples were first dissolved with small amount of dimethyl sulfoxide (DMSO) and then diluted with FSW to achieve final concentrations at 25.0, 12.5, 6.25, 3.13, 1.57, 0.78, 0.39, 0.19, 0.1, and 0.05 µg/mL. About 15−20 competent larvae were added to each well containing 1 mL of test solution in triplicate, and wells containing only FSW, DMSO, and larvae served as a control. The plates were incubated at 25 °C for 48 h. The effects of the test samples against biofouling were determined by examining the plates under a microscope to count settled, unsettled, and swimming larvae, and where appropriate, potential toxic effects were recorded. The number of settled larvae was expressed as a percentage of the total number of larvae per well. Three replicates of each treatment were performed. A concentration-response curve was then made and a trend line was constructed for each compound. EC50 was calculated as the concentration where 50% of the larval individual was inhibited to settle as compared to the control while LC50 was calculated as the concentration where 50% of the larval population was dead. […] For the purposes of this study, adults of the barnacle B. amphitrite were scraped off from the concrete posts at a pier of Pak Sha Wan, Kowloon, Hong Kong (22°21′45″N, 114°15′35″E), where only limited quantity of B. amphitrite could be collected during the period of our experiment because of the relatively hot weather and artificial disturbing of nearby construction work.

Series [3] deals with naupliar larvae of several barnacles. Set-up: method as in PMID 12031437. The note with it: cited from earlier work.
For series [4], the system named is B. amphitrite. Set-up: method as in PMID 18075899. Particulars: reported by Qi et al. ref 21; cited from earlier work.
Series [5] concerns B. amphitrite. The note with it: reported by Qi et al. ref 21; cited from earlier work.
The mark [6] stands for this setting: cyprids, 24-well plates, 25 °C, average of triplicate ± SD, highest concentration 25 μg/mL.

Structures are written as SMILES. Values after ≈ are worked out from the molar mass of the structure shown. Like-named read-outs stand apart in the source and are kept apart here.

Take `Oc1c(Br)cc(Br)cc1Cc1ccc(Br)cc1Br` [2,4-dibromo-6-(2,4-dibromobenzyl)phenol]: the EC50 in the series on barnacle larvae (read-out: EC50, settlement inhibition against barnacle larvae) was 1.26 µM. Regarding `OCc1cc(O)cc(Cl)c1O` [3-chloro-2,5-dihydroxybenzylalcohol], in the series on barnacle larvae, the “EC50, settlement inhibition against barnacle larvae” value was 3.19 to 3.81 µg/mL.

Turning to `COC(=O)C1=CC2(C)CCC3C(C)CC(=O)C32C1C` (stereo not drawn) [Compound 1], the LC50 at 48 h in series [1] was greater than 25 µg/mL. Besides, in the series with B. amphitrite [2] (setting [6]), the EC50 is 3.16 ± 0.18 µg/mL (≈ 12 µM). Taken in the same sequence, the figures for `COC(=O)C1=CC2(C)CCC3C(C)CC(O)C32C1C` (stereo not drawn) [Compound 2] were greater than 25 µg/mL and 10 ± 0.13 µg/mL (≈ 37.9 µM). Taken in the same sequence, the figures for `CC1CC(O)C23C(C)C(C(=O)O)=CC2(C)CCC13` (stereo not drawn) [Compound 3] were greater than 25 µg/mL and greater than 25 µg/mL. The compound `CC1CC(=O)C23C1CCC2(C)C1OC1(C(=O)O)C3C` (stereo not drawn) [Compound 4] returned an LC50 at 48 h in series [1] greater than 25 µg/mL. Moreover, in the series on B. amphitrite [2] (setting [6]), the EC50 is greater than 25 µg/mL.

Take `O=C1O[C@@H](Cc2ccccc2)C(Cc2ccccc2)=C1Cc1ccccc1` [Maculalactone A]: the “EC50 against naupliar larvae of several barnacles” value in series [3] was 1.1 to 5.2 µg/mL.

Compound `CC1CC(=O)C23C(C)C(C(=O)O)=CC2(C)CCC13` (stereo not drawn) [SA, subergorgic acid] registered an LC50 at 48 h in series [1] greater than 25 µg/mL. Besides, the EC50 in the series with B. amphitrite [2] was 1.25 ± 0.14 µg/mL (≈ 5.03 µM). Besides, the “EC50, settlement of B. amphitrite” value in the series on B. amphitrite [4] is 1.2 µg/mL. The LC50 in the series with B. amphitrite [5] is greater than 200 µg/mL.

The LC50 is the concentration lethal to half of the exposed cells or organisms.
